The values below come from patent US5310729A, “Interferon-related polypeptides as CR2 ligands and their use for modulating immune cell functions” (California Institute of Biological Research, priority 1990, dated 1994).

Ends that are not written are not given here.

The target of one experiment is T1, CR2 (Homo sapiens, UniProt P20023).
T1 construct: CR2 is isolated from Raji cells (ATTC CCL 86); endogenous in cells; host or cells: Raji cells (ATCC CCL 86)
T1 sequence (P20023 21-1033): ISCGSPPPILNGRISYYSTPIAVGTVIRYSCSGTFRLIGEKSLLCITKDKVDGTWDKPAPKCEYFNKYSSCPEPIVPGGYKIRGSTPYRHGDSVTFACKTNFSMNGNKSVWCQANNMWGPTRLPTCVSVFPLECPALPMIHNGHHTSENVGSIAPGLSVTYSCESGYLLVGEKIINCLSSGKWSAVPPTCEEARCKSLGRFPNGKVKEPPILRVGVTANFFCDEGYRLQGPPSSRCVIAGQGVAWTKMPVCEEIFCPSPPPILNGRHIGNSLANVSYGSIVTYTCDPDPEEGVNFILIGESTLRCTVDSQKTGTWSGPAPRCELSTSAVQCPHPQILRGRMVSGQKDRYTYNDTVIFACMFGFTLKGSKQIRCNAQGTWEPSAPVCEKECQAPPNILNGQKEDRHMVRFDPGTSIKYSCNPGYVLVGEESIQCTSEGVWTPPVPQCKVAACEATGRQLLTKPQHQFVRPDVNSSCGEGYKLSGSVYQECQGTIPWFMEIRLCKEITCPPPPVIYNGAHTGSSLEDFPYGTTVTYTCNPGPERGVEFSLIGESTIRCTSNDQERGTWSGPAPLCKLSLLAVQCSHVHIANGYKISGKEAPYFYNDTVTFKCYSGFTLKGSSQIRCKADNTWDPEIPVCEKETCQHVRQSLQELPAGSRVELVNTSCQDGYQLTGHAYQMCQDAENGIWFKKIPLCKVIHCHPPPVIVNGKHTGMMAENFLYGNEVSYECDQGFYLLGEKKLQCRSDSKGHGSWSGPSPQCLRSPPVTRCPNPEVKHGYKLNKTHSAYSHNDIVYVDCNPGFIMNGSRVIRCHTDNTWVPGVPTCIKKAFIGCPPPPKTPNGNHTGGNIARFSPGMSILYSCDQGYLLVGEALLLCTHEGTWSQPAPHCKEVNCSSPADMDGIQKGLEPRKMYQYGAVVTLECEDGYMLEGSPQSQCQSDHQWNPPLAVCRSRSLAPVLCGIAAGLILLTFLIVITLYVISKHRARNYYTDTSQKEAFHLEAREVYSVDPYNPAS
Nature of the experiment: Inhibition of CR2 binding to rIFNα by competing polypeptides. Conditions: competing polypeptide at 100ug/ml; rIFNα solid phase, CR2 liquid phase. As to the method:
A binding reaction admixture containing rIFNα in the solid phase and CR2 in the liquid phase was prepared as described in Example 3c except that a competing CR2 ligand shown in Table 6 was also included in the admixture at a concentration of 100ug/ml. Thereafter, the binding assay was conducted as described in Example 3c to measure the amount of CR2 specifically bound to rIFNα.

In experiment [1] the target is T2, native CR2 present on Raji cells (Homo sapiens, UniProt P20023).
T2 construct: native CR2 present on Raji cells; endogenous in cells; host or cells: Raji cells
T2 sequence (P20023 21-1033): T1 sequence (P20023 21-1033)
Nature of the experiment: Inhibition of Zymosan-C3 rosette formation in Raji cells. Conditions: 10^5 Raji cells; zero to 200 μg tested, amount for the value not stated. It is filed as cell-based. As to the method:
Fresh blood was collected from a healthy donor, maintained at room temperature for 2 hours, centrifuged at 2000×g for about 10 min and the resulting supernatant collected. Five mg of Zymosan A particles (Sigma Chemical Co., St. Louis, Mo.) were boiled for 30 min in 20 ml of 150 mM NaCl and washed three times in phosphate-buffered saline (PBS) to form activated particles. One mg of activated particles was admixed with 0.5 ml of the collected blood supernatant, the admixture was maintained at 37° C. for 30 minutes, and then the particles were washed 3 times in PBS. The washed particles were re-suspended in PBS at a concentration of 0.5 mg/ml to form a C3-coated Zymosan composition.
Cultures containing 10^5 Raji cells were admixed with 100 microliters (μl ) of culture medium containing varying amounts (zero to 200 μg) of C3 or IFNαA derived polypeptides (p7 and p2 prepared in Example 1) or rIFNα prepared in Example 3b and the admixture maintained at 37° C. for 30 minutes to allow the CR2 ligand polypeptides to bind any CR2 receptor present on the Raji cells. Thereafter, 50 μl of the C3-coated Zymosan composition were added to each cell culture. […] More than 3 rosettes per cell were counted as C3 specific binding. Inhibition is expressed as the percent decrease in bound rosettes when comparing binding in the presence or absence of admixed polypeptide.

For a further experiment, the system named is rIFNα. Conditions: BSA added to the binding reaction admixture in place of CR2.

On CR2, QLNDLEACV [p2, QLNDLEACV] returned an inhibition at 100 µg/mL of 48%. The “Percent Inhibition of Zymosan-C3 Rosette Formation in Raji Cells” value in experiment [1] was found to be 55%.
Substance QLNDMEACV [p6, QLNDMEACV] registered an inhibition at 100 µg/mL at CR2 of 0%.
On to QLNNLEACV [p4, QLNNLEACV], for which, on CR2, testing at 100 µg/mL gave an inhibition of 45%.
In the case of QLYNVEATS [p7, QLYNVEATS], on CR2, testing at 100 µg/mL gave an inhibition of 50%. Besides, the “Percent Inhibition of Zymosan-C3 Rosette Formation in Raji Cells” value in experiment [1] was found to be 77%.
Consider SPGRGD [p10, SPGRGD], for which the inhibition at 100 µg/mL on CR2 is 0%.
As for bovine serum albumin [BSA], in the experiment on rIFNα, the “Binding to solid-phase rIFNα (in words)” value was “no dose dependent binding”.

The inhibition is how much of the control response was suppressed. Higher therefore signals a strong effect.
